# Entries after “also recorded” stand apart in the source; their conditions may differ.
# Legend:
# [1] = test system: pancreatic tumors of KPFMC mice; assay: Histological examination of KPFMC pancreatic tumors for invasion (intestine, biliary tract); format: in vivo
# Protocol: (§1) FIG. 3A depicts H&E sections of pancreatic tumors from KPFMC mice at clinical endpoint. The tumors were analyzed microscopically to identify intestinal invasion (upper panel). […] Expression values are depicted in the heat map. FIG. 3D is a bar graph showing the influence of gemcitabine treatment on the invasive behavior of tumor cells. The cells were analyzed by quantification of double positive E-cadherin and Fsp1 cells in tumor sections of mice treated with saline and gemcitabine until clinical endpoint.
# (§2) Tumor cells having increased Wnt/β-catenin signaling are known to be invasive. […] This observation supports that gemcitabine monotherapy results in an invasive tumor phenotype. To confirm that gemcitabine monotherapy results in an invasive tumor phenotype, a cohort of KPFMC mice were exposed to gemcitabine monotherapy (100 mg/kg), starting at day 45 after birth. The tumors were subsequently harvested at the clinical humane endpoint. […] This observation supports that gemcitabine monotherapy results in an invasive tumor phenotype.
# [2] = test system: tumor cells undergoing EMT in KPFMC pancreatic tumors; assay: Quantification of tumor cells undergoing EMT (E-cadherin/Fsp1 double positive cells) in KPFMC tumor sections; format: in vivo, mice; conditions: gemcitabine vs saline, treated until clinical endpoint
# Protocol: (§3) Expression values are depicted in the heat map. Mice were treated from day 30 after birth until day 51. […] FIG. 4C is an immunofluorescence image of a section from a saline treated KPFMC mouse pancreas co-stained with E-cadherin and Fsp1 showing high magnification view of cells that co-express both the epithelial and mesenchymal marker (left panel).
# Expression values are depicted in the heat map. Color intensities indicate the fold change with M402+gemcitabine combination therapy over M402. FIG. 5B is a bar graph showing the influence of M402 treatment on the invasive behavior of tumor cells induced by gemcitabine. Tumor sections derived from mice treated with saline and gemcitabine until clinical endpoint were analyzed by quantification of cells positive for E-cadherin and Fsp1 in tumor. FIG. 5C is a bar graph showing the quantification of intact Islets of Langerhans (lower panel) from pancreatic tumors after the indicated treatments. (Means±SD are depicted; *P<0.05, NS P>0.05, Student's t test).
# Tumor cells having increased Wnt/β-catenin signaling are known to be invasive. […] This observation supports that gemcitabine monotherapy results in an invasive tumor phenotype. To confirm that gemcitabine monotherapy results in an invasive tumor phenotype, a cohort of KPFMC mice were exposed to gemcitabine monotherapy (100 mg/kg), starting at day 45 after birth. […]
# RTK phosphorylation = assay: Phospho-RTK array analysis of KPFMC pancreatic tumors; format: in vivo, mice; conditions: gemcitabine treated KPFMC tumors
# Protocol: as §1, §3
# Expression values are depicted in the heat map. Color intensities indicate the fold change with M402+gemcitabine combination therapy over M402. […] Tumor sections derived from mice treated with saline and gemcitabine until clinical endpoint were analyzed by quantification of cells positive for E-cadherin and Fsp1 in tumor. FIG. 5C is a bar graph showing the quantification of intact Islets of Langerhans (lower panel) from pancreatic tumors after the indicated treatments. […]
# [3] = test system: Wnt/β-catenin signaling pathway; assay: Expression of members of the Wnt/β-catenin signaling pathway; format: in vivo; conditions: gemcitabine monotherapy
# Description: FIGS. 6A and 6B depict the effect of gemcitabine treatment on the Wnt/β-catenin signaling pathway.
# FIGS. 7A and 7B depict the effect of pretreatment with M402 followed by subsequent gemcitabine/M402 combination treatment on the Wnt/β-catenin signaling pathway.
# as §2
# This observation supports that M402 inhibits the gemcitabine induced invasive tumor phenotype.
# [4] = test system: pancreatic ductal adenocarcinoma (PDA); conditions: cited from earlier work
structure (smiles),measurement,setting,value
Nc1ccn([C@@H]2O[C@H](CO)[C@@H](O)C2(F)F)c(=O)n1 [gemcitabine],biliary tract obstruction / obstructive jaundice (invasion into the biliary tree),"[1]; gemcitabine monotherapy 100 mg/kg from day 45, clinical endpoint",obstructive jaundice; also recorded: invasion increased
same,intestinal invasion of pancreatic tumors,"[1]; gemcitabine monotherapy 100 mg/kg from day 45 after birth, clinical endpoint, vs saline",increased invasion into the adjacent intestine; also recorded: number of mice with intestinal invasion increased
same,tumor cells undergoing EMT (E-cadherin/Fsp1 double positive cells),[2],increase in tumor cells undergoing EMT
same,RTK phosphorylation in pancreatic tumors,RTK phosphorylation,increased the phosphorylation of several RTKs; also recorded: increase in RTK phosphorylation
same,expression of members of the Wnt/β-catenin signaling pathway,[3],increases expression of several members of the Wnt/β-catenin signaling pathway
same,overall survival,[4]; adjuvant gemcitabine post surgical removal of a pancreatic tumor,prolong overall survival
same,survival benefit,[4]; gemcitabine monotherapy in the absence of surgery,failed to show an extensive survival benefit

# — patent US20170173070A1, “METHODS OF ADMINISTERING LMWH” (MOMENTA PHARMACEUTICALS, INC., priority 2014, published 2017)
